Source: patent publication US6710043B1, “Amide compounds” (Fujisawa Pharmaceutical Co., Ltd., priority 1999, dated 2004)

System: Male Fischer 344 rats
Assay: Penile Erection in Rat
Format: in vivo
Conditions: male Fischer 344 rats (n=7), observed for 60 minutes, mean number
Protocol: (This test was carried out according to a similar manner to that described in Jpn. J. Pharmacol., Vol. 64, 147-153 (1994))
Male Fischer 344 rats at the age of 8 weeks (n=7) were used. All rats were handled 3 minutes a day for three successive days before the tests. The rats were tested in groups of seven and various doses of the test compound were given in semi-randomized order. The test compounds were suspended in 0.5% methyl-cellulose immediately before use, and given intraperitoneally in a volume of 1 ml/kg just before the start of test. […] A mirror was situated behind each box […]. Data was expressed as a mean number.

Row | SMILES | Penile Erection (dose 1 mg/kg intraperitoneally) [number/hr] | Penile Erection (dose 0.32 mg/kg intraperitoneally) [number/hr]
1 | CC(=O)N1CCN(C(=O)Nc2ccc(F)cc2)CC1 [Example 2, 1-acetyl-4-(4-fluorophenylcarbamoyl)piperazine] | 1.14 | –
2 | O=C(NC1CCN(C(=O)C2CC2)CC1)c1ccc(F)cc1 [Example 19, N-(1-cyclopropylcarbonylpiperidin-4-yl)-4-fluorobenzamide] | – | 0.75
